According to ChEMBL document CHEMBL3046545, “Simple and efficient synthetic routes to bioactive s-triazinyl dithiocarbamate derivatives” (2008):

How the values were obtained:
Format in all cases: functional
[1] = test system: Aspergillus niger; test: Antifungal activity against Aspergillus niger at […] after 24 hr by agar well diffusion assay
[2] = test system: Bacillus subtilis; test: Antibacterial activity against Bacillus subtilis at […] after 24 hr by agar well diffusion assay
[3] = test system: Escherichia coli; test: Antibacterial activity against Escherichia coli at […] after 24 hr by agar well diffusion assay
[4] = test system: Streptococcus pyogenes; test: Antibacterial activity against Streptococcus pyogenes at […] after 24 hr by agar well diffusion assay

Row | Structure (SMILES) | inhibition zone (IZ) [1] [mm] | inhibition zone (IZ) [2] [mm] | inhibition zone (IZ) [3] [mm] | inhibition zone (IZ) [4] [mm]
1 | CCOc1ccc(NC(=S)Sc2nc(Nc3cccc(C)c3)nc(Nc3cccc(C)c3)n2)cc1 | 18 | 13 | 14 | 13
2 | Cc1cccc(Nc2nc(Nc3cccc(C)c3)nc(SC(=S)Nc3ccccc3C)n2)c1 | 23 | 12 | 12 | 11
3 | Cc1cccc(NC(=S)Sc2nc(Nc3cccc(C)c3)nc(Nc3cccc(C)c3)n2)c1 | 20 | 14 | 15 | 12
4 | Cc1ccc(NC(=S)Sc2nc(Nc3cccc(C)c3)nc(Nc3cccc(C)c3)n2)cc1 | 14 | 15 | 19 | 15
5 | COc1ccccc1NC(=S)Sc1nc(Nc2cccc(C)c2)nc(Nc2cccc(C)c2)n1 | 18 | 14 | 13 | 14
6 | COc1ccc(NC(=S)Sc2nc(Nc3cccc(C)c3)nc(Nc3cccc(C)c3)n2)cc1 | 17 | 12 | 12 | 15
7 | Cc1cccc(Nc2nc(Nc3cccc(C)c3)nc(SC(=S)Nc3ccccc3[N+](=O)[O-])n2)c1 | 16 | 15 | 15 | 14
8 | Cc1cccc(Nc2nc(Nc3cccc(C)c3)nc(SC(=S)Nc3ccc([N+](=O)[O-])cc3)n2)c1 | 17 | 13 | 13 | 15
9 | Cc1cccc(Nc2nc(Nc3cccc(C)c3)nc(SC(=S)NN3CCOCC3)n2)c1 | 15 | 12 | 12 | 13
10 | CC(=O)N(C(C)=O)C(=S)Sc1nc(Nc2cccc(C)c2)nc(Nc2cccc(C)c2)n1 | 14 | 12 | 11 | 11
11 | Cc1cccc(Nc2nc(SC(=S)Nc3ccccc3)nc(SC(=S)Nc3ccccc3)n2)c1 | 12 | 15 | 12 | 12
12 | Cc1cccc(Nc2nc(SC(=S)Nc3ccc(Cl)cc3)nc(SC(=S)Nc3ccc(Cl)cc3)n2)c1 | 17 | 18 | 15 | 18
13 | CCOc1ccc(NC(=S)Sc2nc(Nc3cccc(C)c3)nc(SC(=S)Nc3ccc(OCC)cc3)n2)cc1 | 12 | 14 | 16 | 15
14 | Cc1cccc(Nc2nc(SC(=S)Nc3ccccc3C)nc(SC(=S)Nc3ccccc3C)n2)c1 | 13 | 19 | 12 | 12
15 | Cc1cccc(NC(=S)Sc2nc(Nc3cccc(C)c3)nc(SC(=S)Nc3cccc(C)c3)n2)c1 | 14 | 13 | 13 | 12
16 | Cc1ccc(NC(=S)Sc2nc(Nc3cccc(C)c3)nc(SC(=S)Nc3ccc(C)cc3)n2)cc1 | 20 | 19 | 13 | 13
17 | COc1ccccc1NC(=S)Sc1nc(Nc2cccc(C)c2)nc(SC(=S)Nc2ccccc2OC)n1 | 14 | 15 | 15 | 11
18 | COc1ccc(NC(=S)Sc2nc(Nc3cccc(C)c3)nc(SC(=S)Nc3ccc(OC)cc3)n2)cc1 | 15 | 15 | 15 | 14
19 | Cc1cccc(Nc2nc(SC(=S)Nc3ccccc3[N+](=O)[O-])nc(SC(=S)Nc3ccccc3[N+](=O)[O-])n2)c1 | 19 | 14 | 17 | 13
20 | Cc1cccc(Nc2nc(SC(=S)Nc3ccc([N+](=O)[O-])cc3)nc(SC(=S)Nc3ccc([N+](=O)[O-])cc3)n2)c1 | 16 | 16 | 15 | 17
21 | Cc1cccc(Nc2nc(SC(=S)NN3CCOCC3)nc(SC(=S)NN3CCOCC3)n2)c1 | 13 | 13 | 12 | 14
22 | CCN(CC)C(=S)Sc1nc(Nc2cccc(C)c2)nc(SC(=S)N(CC)CC)n1 | 13 | 12 | 12 | 12
23 | Cc1cccc(Nc2nc(Nc3cccc(C)c3)nc(SC(=S)Nc3ccccc3)n2)c1 | 17 | 12 | 13 | 15
24 | Cc1cccc(Nc2nc(Nc3cccc(C)c3)nc(SC(=S)Nc3ccc(Cl)cc3)n2)c1 | 16 | 12 | 15 | 13
25 | CC1(C)S[C@@H]2[C@H](NC(=O)[C@H](N)c3ccccc3)C(=O)N2[C@H]1C(=O)O [AMPICILLIN] | – | 22 | 24 | 26
26 | O=C(N[C@H](CO)[C@H](O)c1ccc([N+](=O)[O-])cc1)C(Cl)Cl [CHLORAMPHENICOL] | – | 28 | 19 | 22
27 | COC1=CC(=O)C[C@@H](C)[C@]12Oc1c(Cl)c(OC)cc(OC)c1C2=O [GRISEOFULVIN] | 20 | – | – | –
28 | CCn1cc(C(=O)O)c(=O)c2cc(F)c(N3CCNCC3)cc21 [NORFLOXACIN] | – | 19 | 25 | 26
